Experimental data published in patent publication US20250145606A1 (Arcus Biosciences, Inc., priority 2023, published 2025).

Key:
c-Kit = c-Kit (Homo sapiens (Human), UniProt P10721); assay: Inhibition of c-Kit kinase activity (HTRF KinEASE-TK); format: biochemical; conditions: biochemical, HTRF KinEASE-TK
Summary of the method: (§1)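 Phosphorylation of biotinylated TK peptide read by HTRF (665/620 nm ratio) after 120 min at rt, following 1 h enzyme–compound preincubation. ATP (2× mix): 20 μM CSF1R, 16 μM c-Kit, 40 μM PDGFRβ, 1 μM PDGFRα; MgCl2 10 mM except c-Kit 5 mM. 22-point 1:2 titration; four-parameter IC50.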

CSF1R = CSF1R (Homo sapiens (Human), UniProt P07333); assay: Inhibition of CSF1R kinase activity (HTRF KinEASE-TK); conditions: biochemical, HTRF KinEASE-TK
CSF1R, sequence (P07333 20-972): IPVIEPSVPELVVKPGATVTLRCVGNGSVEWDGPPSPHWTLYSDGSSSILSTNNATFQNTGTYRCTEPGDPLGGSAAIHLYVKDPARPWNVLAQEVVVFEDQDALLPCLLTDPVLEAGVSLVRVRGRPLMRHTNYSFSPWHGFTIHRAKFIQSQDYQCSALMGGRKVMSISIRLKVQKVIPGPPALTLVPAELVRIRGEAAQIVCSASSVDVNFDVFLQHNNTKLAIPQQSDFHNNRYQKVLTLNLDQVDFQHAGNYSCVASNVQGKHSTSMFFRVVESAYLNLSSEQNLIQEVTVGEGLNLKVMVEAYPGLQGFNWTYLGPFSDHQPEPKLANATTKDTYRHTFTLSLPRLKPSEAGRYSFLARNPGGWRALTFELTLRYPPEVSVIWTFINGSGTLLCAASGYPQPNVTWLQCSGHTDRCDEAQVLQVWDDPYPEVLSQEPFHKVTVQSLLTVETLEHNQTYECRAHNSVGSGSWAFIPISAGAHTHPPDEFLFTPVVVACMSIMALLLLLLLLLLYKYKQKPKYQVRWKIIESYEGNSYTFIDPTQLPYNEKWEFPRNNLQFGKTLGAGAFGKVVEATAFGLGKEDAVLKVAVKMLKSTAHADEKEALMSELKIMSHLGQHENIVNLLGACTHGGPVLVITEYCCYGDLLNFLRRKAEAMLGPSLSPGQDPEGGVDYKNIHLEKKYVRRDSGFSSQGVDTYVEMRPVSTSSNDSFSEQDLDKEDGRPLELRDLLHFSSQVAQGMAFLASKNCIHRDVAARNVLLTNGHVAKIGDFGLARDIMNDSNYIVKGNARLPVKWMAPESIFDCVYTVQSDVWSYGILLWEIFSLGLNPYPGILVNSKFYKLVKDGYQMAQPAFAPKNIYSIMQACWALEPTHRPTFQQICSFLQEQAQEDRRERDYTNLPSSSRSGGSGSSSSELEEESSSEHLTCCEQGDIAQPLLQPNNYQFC
Summary of the method: as §1

[1] = test system: Phospho-KIT (Y703) in M07e cells; assay: Phospho-KIT (Y703) cellular assay in M07e cells; format: cell-based; conditions: M-07e; Phospho-KIT (Y703), M07e cells; read-out: M07e Cell IC50
Procedure: Phospho-KIT (Y703) Cellular Assay in M07e Cells
The day prior to assay, M07e cells (DSMZ, catalog #ACC 104) were serum starved. Cells were centrifuged and cell pellet resuspended in OptiMEM (Gibco, catalog #31985062) to a density of 1×10^6-2.5×10^6 cells per mL. Cells were then incubated overnight at 5% CO2 and 37° C. in an appropriately sized flask. On the day of the experiment, an 11 point, half log titration of test compound was pre-dispensed into 96-well round bottom polypropylene plates (Corning, catalog #3365). The serum starved M07e cells were centrifuged and resuspended to a cell density of 1×10^6 cells per mL with DPBS (Gibco, catalog #14190-144). Live/Dead Green Fixable viability dye (Invitrogen, catalog #L34970) was added as 1 μL/1 mL of cell suspension. Cells were then incubated in the dark at 4° C. for 30 min. Cells were washed by centrifugation and resuspension with DPBS+0.5% BSA (Gemini Bio Products, catalog #700110/100, 30% BSA solution). Cells were resuspended, separated into two equal volumes and again centrifuged. Cell pellets were resuspended with OptiMEM™ to a cell density of 1×10^6 cells per mL. Cells were then added to the appropriate compound plate at 100,000 cells per well in 100 μL and mixed. Plates were incubated at 5% CO2 and 37° C. for 50 min. Stem Cell Factor, SCF (R&D Systems, #255-SC/CF) was diluted in OptiMEM to 1 μg/mL and added to all wells as 10 μL for a final concentration of 90.9 ng/mL. Plates were incubated at 5% CO2 and 37° C. for 10 min. Incubation was stopped by addition of 110 μL 4% paraformaldehyde solution in PBS (Life Technologies, catalog #J19943.K2). Plates were incubated at rt for at least 15 min. Plates were then centrifuged and supernatant removed by flicking. Cells were washed once by resuspension in 200 μL DPBS+0.5% BSA, centrifuged, and supernatant removed by flicking. Cells were resuspended in 100 μL 1X Permeabilization buffer (Invitrogen, catalog #88882400) and plates incubated at rt for 30 min. Plates were centrifuged, supernatant removed by flicking, and cells resuspended in 50 μL primary antibody, anti-phospho-c-KIT (Tyr703) (Cell Signaling, catalog #3073), diluted to 1 μg/mL with permeabilization buffer. Plates were incubated at rt for 1 h. Plates were centrifuged, supernatant removed, and cells resuspended with 200 μL DPBS+0.5% BSA. Plates were again centrifuged, supernatant removed by flicking, and cells resuspended in 100 μL secondary antibody, goat anti-rabbit AlexaFluor647 (AF647) (Invitrogen, catalog #A21244) diluted to 1 μg/mL with DPBS+0.5% BSA. Plates were incubated at rt for 30 min. followed by centrifugation, supernatant removal, and cell resuspension with 200 μL DPBS+0.5% BSA. Cells were washed again by centrifugation, supernatant removal, and cell resuspension with 200 μL DPBS+0.5% BSA. Samples were then read by flow cytometry. The Forward: Side scatter plot was gated and that population was gated for live cells based on the Live/Dead Green staining. The geometric mean of AF647 of the live cell population was recorded. Percentage maximum activity in each test well was calculated based on DMSO (100% activity) and positive control treated cell wells (0% activity). The potencies (IC50 values) of test compounds were determined using a standard 4-parameter non-linear regression fit.

PDGFRα = PDGFRα (Homo sapiens (Human), UniProt P16234); assay: Inhibition of PDGFRα kinase activity (HTRF KinEASE-TK); conditions: biochemical, HTRF KinEASE-TK
PDGFRα, sequence (P16234 24-1089): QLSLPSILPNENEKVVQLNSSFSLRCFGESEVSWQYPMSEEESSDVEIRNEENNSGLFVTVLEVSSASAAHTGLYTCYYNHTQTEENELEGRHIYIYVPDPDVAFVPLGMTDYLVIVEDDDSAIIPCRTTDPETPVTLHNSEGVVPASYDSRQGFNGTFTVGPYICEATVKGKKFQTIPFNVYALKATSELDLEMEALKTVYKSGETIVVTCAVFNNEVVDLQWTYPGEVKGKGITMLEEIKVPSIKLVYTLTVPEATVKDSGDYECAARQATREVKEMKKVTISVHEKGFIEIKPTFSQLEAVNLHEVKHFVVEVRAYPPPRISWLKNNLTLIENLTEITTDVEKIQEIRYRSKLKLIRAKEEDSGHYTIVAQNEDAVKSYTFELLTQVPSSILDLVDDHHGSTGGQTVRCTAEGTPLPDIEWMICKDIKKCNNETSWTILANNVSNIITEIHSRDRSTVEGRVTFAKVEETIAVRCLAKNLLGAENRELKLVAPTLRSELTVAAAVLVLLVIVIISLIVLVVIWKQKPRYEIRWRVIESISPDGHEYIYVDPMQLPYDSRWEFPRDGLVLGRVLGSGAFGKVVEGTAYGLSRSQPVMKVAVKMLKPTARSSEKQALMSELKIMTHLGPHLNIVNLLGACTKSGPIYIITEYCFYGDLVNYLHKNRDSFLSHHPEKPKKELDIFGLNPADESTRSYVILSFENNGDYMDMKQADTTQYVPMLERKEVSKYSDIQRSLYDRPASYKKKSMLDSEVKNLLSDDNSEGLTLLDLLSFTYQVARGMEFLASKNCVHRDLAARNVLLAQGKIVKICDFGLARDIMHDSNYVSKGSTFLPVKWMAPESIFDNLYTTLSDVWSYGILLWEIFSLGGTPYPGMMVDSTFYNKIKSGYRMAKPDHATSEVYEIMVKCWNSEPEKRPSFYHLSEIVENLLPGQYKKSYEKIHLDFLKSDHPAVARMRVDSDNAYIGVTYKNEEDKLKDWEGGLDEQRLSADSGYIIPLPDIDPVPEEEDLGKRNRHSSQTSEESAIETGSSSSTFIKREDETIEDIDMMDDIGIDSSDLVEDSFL
Summary of the method: as §1

PDGFRβ = PDGFRβ (Homo sapiens (Human), UniProt P09619); assay: Inhibition of PDGFRβ kinase activity (HTRF KinEASE-TK); conditions: biochemical, HTRF KinEASE-TK
PDGFRβ, sequence (P09619 33-1106): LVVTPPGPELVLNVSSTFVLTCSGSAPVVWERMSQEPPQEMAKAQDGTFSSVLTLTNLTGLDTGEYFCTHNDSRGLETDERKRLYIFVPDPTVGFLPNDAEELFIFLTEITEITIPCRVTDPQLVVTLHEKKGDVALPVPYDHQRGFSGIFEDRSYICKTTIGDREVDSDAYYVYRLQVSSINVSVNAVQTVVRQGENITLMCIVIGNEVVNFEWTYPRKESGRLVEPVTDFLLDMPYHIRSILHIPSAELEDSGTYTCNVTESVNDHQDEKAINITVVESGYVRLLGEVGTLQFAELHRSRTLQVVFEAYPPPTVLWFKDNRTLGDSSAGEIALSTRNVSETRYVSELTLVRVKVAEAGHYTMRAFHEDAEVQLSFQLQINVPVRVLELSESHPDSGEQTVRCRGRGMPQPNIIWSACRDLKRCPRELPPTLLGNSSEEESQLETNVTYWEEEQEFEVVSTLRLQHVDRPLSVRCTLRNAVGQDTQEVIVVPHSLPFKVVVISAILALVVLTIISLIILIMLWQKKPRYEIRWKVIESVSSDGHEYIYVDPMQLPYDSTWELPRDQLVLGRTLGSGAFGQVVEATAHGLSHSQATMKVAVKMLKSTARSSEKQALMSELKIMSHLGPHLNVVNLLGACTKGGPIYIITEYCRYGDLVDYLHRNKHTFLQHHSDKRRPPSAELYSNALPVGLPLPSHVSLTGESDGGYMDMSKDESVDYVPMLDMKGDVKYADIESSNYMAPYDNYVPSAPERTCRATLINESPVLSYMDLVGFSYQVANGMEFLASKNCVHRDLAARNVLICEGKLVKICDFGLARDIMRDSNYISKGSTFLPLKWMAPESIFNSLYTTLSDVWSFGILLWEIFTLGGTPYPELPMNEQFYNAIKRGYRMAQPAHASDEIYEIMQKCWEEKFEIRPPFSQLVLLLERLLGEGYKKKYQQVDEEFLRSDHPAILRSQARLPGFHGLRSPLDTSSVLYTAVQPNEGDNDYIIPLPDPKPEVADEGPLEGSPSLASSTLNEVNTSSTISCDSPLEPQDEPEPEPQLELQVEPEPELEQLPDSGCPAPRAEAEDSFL
Summary of the method: as §1

c-Kit, sequence (P10721 26-976): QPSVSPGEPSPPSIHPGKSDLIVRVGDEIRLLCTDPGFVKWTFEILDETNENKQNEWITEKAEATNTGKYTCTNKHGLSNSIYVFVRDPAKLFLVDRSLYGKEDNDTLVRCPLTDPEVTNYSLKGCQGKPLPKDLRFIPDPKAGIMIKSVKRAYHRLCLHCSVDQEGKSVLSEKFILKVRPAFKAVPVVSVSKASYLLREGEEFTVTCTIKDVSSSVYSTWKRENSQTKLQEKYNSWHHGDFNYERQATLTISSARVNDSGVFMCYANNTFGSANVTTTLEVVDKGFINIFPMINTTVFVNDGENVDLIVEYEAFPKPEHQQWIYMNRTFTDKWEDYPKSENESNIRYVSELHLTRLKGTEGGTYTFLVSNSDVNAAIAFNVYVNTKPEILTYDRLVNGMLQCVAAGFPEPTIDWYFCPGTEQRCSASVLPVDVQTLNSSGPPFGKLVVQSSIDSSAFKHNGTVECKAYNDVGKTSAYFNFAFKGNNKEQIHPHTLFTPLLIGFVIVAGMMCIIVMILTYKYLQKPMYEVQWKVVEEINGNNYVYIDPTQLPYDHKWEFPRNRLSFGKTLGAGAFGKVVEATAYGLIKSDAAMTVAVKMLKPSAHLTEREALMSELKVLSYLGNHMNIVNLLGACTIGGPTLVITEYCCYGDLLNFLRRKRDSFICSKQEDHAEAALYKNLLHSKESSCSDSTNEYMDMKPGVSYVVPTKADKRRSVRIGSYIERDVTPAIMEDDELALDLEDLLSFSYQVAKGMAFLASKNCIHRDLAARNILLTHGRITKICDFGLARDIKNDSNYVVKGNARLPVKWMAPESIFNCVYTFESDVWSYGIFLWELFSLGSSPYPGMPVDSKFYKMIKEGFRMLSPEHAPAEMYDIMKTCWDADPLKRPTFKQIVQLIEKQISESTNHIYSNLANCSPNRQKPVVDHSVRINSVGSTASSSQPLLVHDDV

| SMILES | IC50 (c-Kit) | IC50 (CSF1R) | IC50 [1] | IC50 (PDGFRα) | IC50 (PDGFRβ) |
| --- | --- | --- | --- | --- | --- |
| Cc1cc(F)c(C(=O)Nc2nnc(C3CC3)[nH]2)cc1NC(=O)c1cnc(N)s1 [Example 176, 2-Amino-N-[5-[(5-cyclopropyl-4H-1,2,4-triazol-3-yl)carbamoyl]-4-fluoro-2-methylphenyl]-1,3-thiazole-5-carboxamide] | 0.1 to 1 µM | > 1 µM | – | > 1 µM | > 1 µM |
| Cc1cc(F)c(C(=O)Nc2ccc(S(C)(=O)=O)cn2)cc1NC(=O)c1cnc(N)s1 [Example 116, 2-Amino-N-[4-fluoro-2-methyl-5-[(5-methylsulfonylpyridin-2-yl)carbamoyl]phenyl]-1,3-thiazole-5-carboxamide] | < 0.1 µM | 0.1 to 1 µM | – | > 1 µM | 0.1 to 1 µM |
| Cc1ncc(C(=O)Nc2cc(C(=O)NCc3cccnc3)c(F)cc2C)s1 [Example 12, N-(4-Fluoro-2-methyl-5-((pyridin-3-ylmethyl)carbamoyl)phenyl)-2-methylthiazole-5-carboxamide] | 0.1 to 1 µM | – | 0.1 to 1 µM | – | – |
| Cc1cc(F)c(C(=O)Nc2ccccc2F)cc1NC(=O)c1cnc(N)s1 [Example 234, 2-Amino-N-[4-fluoro-5-[(2-fluorophenyl)carbamoyl]-2-methylphenyl]-1,3-thiazole-5-carboxamide] | < 0.1 µM | > 1 µM | – | > 1 µM | > 1 µM |
| Cc1cc(F)c(C(=O)NCc2ccn(C(C)C)n2)cc1NC(=O)c1cnc(N)s1 [Example 253, 2-Amino-N-[4-fluoro-2-methyl-5-[(1-propan-2-ylpyrazol-3-yl)methylcarbamoyl]phenyl]-1,3-thiazole-5-carboxamide] | < 0.1 µM | > 1 µM | – | 0.1 to 1 µM | 0.1 to 1 µM |
| COc1ccc(NC(=O)c2cc(NC(=O)c3cnc(N)s3)c(F)cc2F)nc1 [Example 211, 2-Amino-N-[2,4-difluoro-5-[(5-methoxypyridin-2-yl)carbamoyl]phenyl]-1,3-thiazole-5-carboxamide] | < 0.1 µM | > 1 µM | – | > 1 µM | > 1 µM |
| Cc1cc(F)c(C(=O)Nc2cc3n(n2)CCOC3)cc1NC(=O)c1cnc(N)s1 [Example 182, 2-Amino-N-[5-(6,7-dihydro-4H-pyrazolo [5,1-c][1,4]oxazin-2-ylcarbamoyl)-4-fluoro-2-methylphenyl]-1,3-thiazole-5-carboxamide] | < 0.1 µM | > 1 µM | – | > 1 µM | 0.1 to 1 µM |
| Cc1cc(F)c(C(=O)Nc2ccc3c(c2)NC(=O)C3(C)C)cc1NC(=O)c1cnc(N)s1 [Example 183, 2-Amino-N-[5-[(3,3-dimethyl-2-oxo-1H-indol-6-yl)carbamoyl]-4-fluoro-2-methylphenyl]-1,3-thiazole-5-carboxamide] | < 0.1 µM | 0.1 to 1 µM | – | < 0.1 µM | < 0.1 µM |
| Nc1ncc(C(=O)Nc2cc(C(=O)NC3CC3)c(F)cc2Cl)s1 [Example 200, 2-Amino-N-[2-chloro-5-(cyclopropylcarbamoyl)-4-fluorophenyl]-1,3-thiazole-5-carboxamide] | < 0.1 µM | > 1 µM | – | 0.1 to 1 µM | > 1 µM |
| Cc1cc(F)c(C(=O)N[C@H]2C[C@@H](C#N)C2)cc1NC(=O)c1cnc(N)s1 [Example 126, 2-Amino-N-[5-[(3-cyanocyclobutyl)carbamoyl]-4-fluoro-2-methylphenyl]-1,3-thiazole-5-carboxamide] | < 0.1 µM | > 1 µM | – | 0.1 to 1 µM | > 1 µM |

Next, values leading:

| IC50 (c-Kit) | IC50 (CSF1R) | IC50 [1] | IC50 (PDGFRα) | IC50 (PDGFRβ) | SMILES |
| --- | --- | --- | --- | --- | --- |
| < 0.1 µM | > 1 µM | < 0.1 µM | – | – | Cc1ncc(C(=O)Nc2cc(C(=O)Nc3cnc(OC(F)F)cn3)c(F)cc2C)s1 [Example 15, N-[5-[[5-(Difluoromethoxy)pyrazin-2-yl]carbamoyl]-4-fluoro-2-methylphenyl]-2-methyl-1,3-thiazole-5-carboxamide] |
| < 0.1 µM | – | < 0.1 µM | – | – | Cc1ncc(C(=O)Nc2cc(C(=O)Nc3ccc(C(F)F)nc3)c(F)cc2C)s1 [Example 54, N-[5-[[6-(difluoromethyl)pyridin-3-yl]carbamoyl]-4-fluoro-2-methylphenyl]-2-methyl-1,3-thiazole-5-carboxamide] |
| < 0.1 µM | > 1 µM | – | > 1 µM | > 1 µM | Cc1ncc(C(=O)Nc2cc(C(=O)Nc3ccc(OC4CC4)c(C)n3)c(F)cc2C)s1 [Example 62, N-[5-[(5-Cyclopropyloxy-6-methylpyridin-2-yl)carbamoyl]-4-fluoro-2-methylphenyl]-2-methyl-1,3-thiazole-5-carboxamide] |
| < 0.1 µM | > 1 µM | – | > 1 µM | > 1 µM | Cc1ncc(C(=O)Nc2cc(C(=O)Nc3ccc(OCC(F)(F)F)cn3)c(F)cc2C)s1 [Example 41, N-[4-fluoro-2-methyl-5-[[5-(2,2,2-trifluoroethoxy)pyridin-2-yl]carbamoyl]phenyl]-2-methyl-1,3-thiazole-5-carboxamide] |
| < 0.1 µM | > 1 µM | – | > 1 µM | > 1 µM | Cc1ncc(C(=O)Nc2cc(C(=O)Nc3ccc(C(F)F)cn3)c(F)cc2C)s1 [Example 16, N-[5-[[5-(Difluoromethyl)pyridin-2-yl]carbamoyl]-4-fluoro-2-methylphenyl]-2-methyl-1,3-thiazole-5-carboxamide] |
| < 0.1 µM | 0.1 to 1 µM | – | 0.1 to 1 µM | 0.1 to 1 µM | Cc1cc(F)c(C(=O)Nc2cc(C3CC3)[nH]n2)cc1NC(=O)c1cnc(N)s1 [Example 177, 2-Amino-N-[5-[(5-cyclopropyl-1H-pyrazol-3-yl)carbamoyl]-4-fluoro-2-methylphenyl]-1,3-thiazole-5-carboxamide] |
| 0.1 to 1 µM | > 1 µM | – | > 1 µM | > 1 µM | CCc1cc(F)c(C(=O)Nc2ccc(OC3CC3)cn2)cc1NC(=O)c1cnc(N)s1 [Example 237, 2-Amino-N-[5-[(5-cyclopropyloxypyridin-2-yl)carbamoyl]-2-ethyl-4-fluorophenyl]-1,3-thiazole-5-carboxamide] |
| < 0.1 µM | > 1 µM | – | > 1 µM | > 1 µM | Cc1ncc(C(=O)Nc2cc(C(=O)Nc3ccc(C(F)(F)F)nc3)c(F)cc2C)s1 [Example 26, N-[4-Fluoro-2-methyl-5-[[6-(trifluoromethyl)pyridin-3-yl]carbamoyl]phenyl]-2-methyl-1,3-thiazole-5-carboxamide] |
| 0.1 to 1 µM | > 1 µM | – | > 1 µM | > 1 µM | COCc1ccc(NC(=O)c2cc(NC(=O)c3cnc(C)s3)c(C)cc2F)nc1 [Example 37, N-[4-fluoro-5-[[5-(methoxymethyl)pyridin-2-yl]carbamoyl]-2-methylphenyl]-2-methyl-1,3-thiazole-5-carboxamide] |
| 0.1 to 1 µM | > 1 µM | – | > 1 µM | > 1 µM | Cc1cc(F)c(C(=O)Nc2ccc(OC3CC3)cn2)cc1NC(=O)c1cnc(NC(=O)C(C)(C)O)s1 [Example 109, N-[5-[(5-cyclopropyloxypyridin-2-yl)carbamoyl]-4-fluoro-2-methylphenyl]-2-[(2-hydroxy-2-methylpropanoyl)amino]-1,3-thiazole-5-carboxamide] |
